Measurements reported in patent US20240166649A1, “DIHYDROPYRIMIDINE COMPOUND, PREPARATION METHOD THEREFOR AND APPLICATION THEREOF” (Shanghai Visonpharma Co., Ltd., priority 2021, published 2024).

tested on: HBV (hepatitis B virus) in HepG2.2.15 cells; experiment: Cell-based anti-viral activity assay (HBV DNA in supernatant by quantitative PCR); settings: 120 h, anti-HBV activity, HepG2.2.15 cells, 5 days, read-out: EC50 (HepG2.2.15)
Method: Cell-Based Anti-Viral Activity Assay
The Invention determined the anti-HBV (hepatitis B virus) activity of compounds in HepG2.2.15 cells (Table 1).
HepG2.2.15 is a cell line stably transfected with the HBV genome. HepG2.2.15 cells were cultured in DMEM (1X) with 10% fetal bovine serum (Corning), 100 U penicillin (Gibico), 100 μg/mL streptomycin (Gibico), 250 μg/mL geneticin (Gibco) and GlutaMAXTM-I medium (Invitrogen).
HepG2.2.15 cells were seeded into 96-well plates (4×10^4 cells in 100 μL of medium per well) and incubated overnight at 37° C. The test compounds were weighed and prepared as 10 mM stock solution with DMSO. The stock solutions of the compounds were diluted by a gradient of 3.16 times with DMSO, and then diluted by a gradient of 3.16 times with medium for 50 times. Finally, the diluted compound solutions were added to the cell plate with a total volume of 200 μL and the final DMSO concentration was 1%. The 96-well culture plates loaded with drugs were transferred to an incubator at 37° C. for 5 days. […] nucleic acid releasing agent was added to 96-well PCR reaction plate, and 2 μL of cell supernatant or HBV quantitative standards were added to the corresponding Wells. Centrifuged the plates to fully mix, and incubated at room temperature for 10 min to fully release nucleic acid. Quantified HBV DNA content by fluorescent quantitative PCR (CFX Connect Real-Time System) using Sanxiang Bio hepatitis B virus fluorescent quantitative diagnostic kit.
The standard curve was established by taking the logarithm of the copy number (IU/ml) of the HBV standard sample (log 10) as the abscordinate and the corresponding CT value as the ordinate. The copy number of the sample was calculated according to the corresponding CT of the positive sample and the standard curve, and the percentage of inhibition rate was calculated as follows: • % Inhibition=100-100*(sample HBV copy number−high concentration reference compound column HBV copy number)/DMSO column HBV copy number−high concentration reference compound column HBV copy number).

Structure (SMILES) | EC50
CCOC(=O)C1=C(CN2CCN3C(=O)N(C45CC(NC(C)=O)(C4)C5)C[C@@H]3C2)NC(c2nccs2)=N[C@H]1c1cccc(F)c1C [Compound 10, Ethyl (S)-6-(((S)-2-(3-Acetamidobicyclo[1.1.1]Pentan-1-Yl)-3-Oxohexahydroimidazo[1,5-a]Pyrazin-7(1H)-Yl)Methyl)-4-(3-Fluoro-2-Methylphenyl)-2-(Thiazol-2-Yl)-1,4-Dihydropyrimidine-5-Carboxylate] | 8 nM
CCOC(=O)C1=C(CN2CCN3C(=O)N(C45CC(N(C)S(C)(=O)=O)(C4)C5)C[C@@H]3C2)NC(c2nccs2)=N[C@H]1c1cccc(F)c1C [Compound 11, Ethyl (S)-4-(3-Fluoro-2-Methylphenyl)-6-(((S)-2-(3-(N-Methylmethylsulfonamido)Bicyclo[1.1.1]Pentan-1-Yl)-3-Oxohexahydroimidazo[1,5-a]Pyrazin-7(1H)-Yl)Methyl)-2-(Thiazol-2-Yl)-1,4-Dihydropyrimidine-5-Carboxylate] | 4 nM
CCOC(=O)C1=C(CN2CCN3C(=O)N(C45CC(CNS(N)(=O)=O)(C4)C5)C[C@@H]3C2)NC(c2nccs2)=N[C@H]1c1cccc(F)c1C [Compound 24, Ethyl (S)-4-(3-Fluoro-2-Methylphenyl)-6-(((S)-3-Oxo-2-(3-((Sulfamoylamino)Methyl)Bicyclo[1.1.1]Pentan-1-Yl)Hexahydroimidazo[1,5-a]Pyrazin-7(1H)-Yl)Methyl)-2-(Thiazol-2-Yl)-1,4-Dihydropyrimidine-5-Carboxylate] | 9 nM
CCOC(=O)C1=C(CN2CCN3C(=O)N(C45CC(C(N)=O)(C4)C5)C[C@@H]3C2)NC(c2nccs2)=N[C@H]1c1cccc(F)c1C [Compound 7, ethyl (S)-6-(((S)-2-(3-Carbamoylbicyclo[1.1.1]Pentan-1-Yl)-3-Oxohexahydroimidazo[1,5-a]Pyrazin-7(1H)-Yl)Methyl)-4-(3-Fluoro-2-Methylphenyl)-2-(Thiazol-2-Yl)-1,4-Dihydropyrimidine-5-Carboxylate] | 7 nM
COC(=O)C1=C(CN2CCN3C(=O)N(C45CC(CC(=O)O)(C4)C5)C[C@@H]3C2)NC(c2nccs2)=N[C@H]1c1ccc(F)c(F)c1C [Compound 41, 2-(3-((S)-7-(((S)-6-(3,4-Difluoro-2-Methylphenyl)-5-(Methoxycarbonyl)-2-(Thiazol-2-Yl)-3,6-Dihydropyrimidin-4-Yl)Methyl)-3-Oxohexahydroimidazo[1,5-a]Pyrazin-2(3H)-Yl)Bicyclo[1.1.1]Pentan-1-Yl)Acetic Acid] | 8 nM
CCOC(=O)C1=C(CN2CCN3C(=O)N(C45CC(C(O)C(=O)O)(C4)C5)C[C@@H]3C2)NC(c2nccs2)=N[C@H]1c1cccc(F)c1C (stereo partly drawn) [Compound 50, 2-(3-((S)-7-(((S)-5-(Ethoxycarbonyl)-6-(3-Fluoro-2-Methylphenyl)-2-(Thiazol-2-Yl)-3,6-Dihydropyrimidin-4-Yl)Methyl)-3-Oxohexahydroimidazo[1,5-a]Pyrazin-2(3H)-Yl)Bicyclo[1.1.1]Pentan-1-Yl)-2-Hydroxyacetic Acid] | 3 nM
CCOC(=O)C1=C(CN2CCN3C(=O)N(C45CCC(CC(=O)O)(CC4)C5)C[C@@H]3C2)NC(c2nccs2)=N[C@H]1c1cccc(F)c1C [Compound 63, 2-(4-((S)-7-(((S)-5-(Ethoxycarbonyl)-6-(3-Fluoro-2-Methylphenyl)-2-(Thiazol-2-Yl)-3,6-Dihydropyrimidin-4-Yl)Methyl)-3-Oxohexahydroimidazo[1,5-a]Pyrazin-2(3H)-Yl)Bicyclo[2.2.1]Heptan-1-Yl)Acetic Acid] | 26 nM
CCOC(=O)C1=C(CN2CCN3C(=O)N(C45CC(CC#N)(C4)C5)C[C@@H]3C2)NC(c2nccs2)=N[C@H]1c1cccc(F)c1C [Compound 20, Ethyl (S)-6-(((S)-2-(3-(Cyanomethyl)Bicyclo[1.1.1]Pentan-1-Yl)-3-Oxohexahydroimidazo[1,5-a]Pyrazin-7 (1H)-Yl)Methyl)-4-(3-Fluoro-2-Methylphenyl)-2-(Thiazol-2-Yl)-1,4-Dihydropyrimidine-5-Carboxylate] | 3 nM
CCOC(=O)C1=C(CN2CCN3C(=O)N(C45CC(CC(=O)O)(C4)C5)C[C@@H]3C2)NC(c2nccs2)=N[C@H]1c1cccc(F)c1Cl [Compound 34, 2-(3-((S)-7-(((R)-6-(2-Chloro-3-Fluorophenyl)-5-(Ethoxycarbonyl)-2-(Thiazol-2-Yl)-3,6-Dihydropyrimidin-4-Yl)Methyl)-3-Oxohexahydroimidazo[1,5-a]Pyrazin-2(3H)-Yl)Bicyclo[1.1.1]Pentan-1-Yl)Acetic Acid] | 22 nM
CCOC(=O)C1=C(CN2CCN3C(=O)N(C45CC(C(C)(C)C(=O)O)(C4)C5)C[C@@H]3C2)NC(c2nccs2)=N[C@H]1c1cccc(F)c1C [Compound 42] | 11 nM
CCOC(=O)C1=C(CN2CCN3C(=O)N(C45CCC(CC(=O)O)(CC4)C5)C[C@@H]3C2)NC(c2nccs2)=N[C@H]1c1ccc(F)cc1C [Compound 64, 2-(4-((S)-7-(((S)-5-(Ethoxycarbonyl)-6-(4-Fluoro-2-Methylphenyl)-2-(Thiazol-2-Yl)-3,6-Dihydropyrimidin-4-Yl)Methyl)-3-Oxohexahydroimidazo[1,5-a]Pyrazin-2(3H)-Yl)Bicyclo[2.2.1]Heptan-1-Yl)Acetic Acid] | 57 nM
CCOC(=O)C1=C(CN2CCN3C(=O)N(C45CC(C(=O)NC)(C4)C5)C[C@@H]3C2)NC(c2nccs2)=N[C@H]1c1cccc(F)c1C [Compound 26, Ethyl (S)-4-(3-Fluoro-2-Methylphenyl)-6-(((S)-2-(3-(Methylcarbamoyl)Bicyclo[1.1.1]Pentan-1-Yl)-3-Oxohexahydroimidazo[1,5-a]Pyrazin-7(1H)-Yl)Methyl)-2-(Thiazol-2-Yl)-1,4-Dihydropyrimidine-5-Carboxylate] | 5 nM
CCOC(=O)C1=C(CN2CCN3C(=O)N(C45CC(CNC(C)=O)(C4)C5)C[C@@H]3C2)NC(c2nccs2)=N[C@H]1c1cccc(F)c1C [Compound 15, ethyl (S)-6-(((S)-2-(3-(Acetamidomethyl)Bicyclo[1.1.1]Pentan-1-Yl)-3-Oxohexahydroimidazo[1,5-a]Pyrazin-7(1H)-Yl)Methyl)-4-(3-Fluoro-2-Methylphenyl)-2-(Thiazol-2-Yl)-1,4-Dihydropyrimidine-5-Carboxylate] | 4 nM
CCOC(=O)C1=C(CN2CCN3C(=O)N(C45CC(C(OC)C(=O)O)(C4)C5)C[C@@H]3C2)NC(c2nccs2)=N[C@H]1c1cccc(F)c1C (stereo partly drawn) [Compound 51, 2-(3-((S)-7-(((S)-5-(Ethoxycarbonyl)-6-(3-Fluoro-2-Methylphenyl)-2-(Thiazol-2-Yl)-3,6-Dihydropyrimidin-4-Yl)Methyl)-3-Oxohexahydroimidazo[1,5-a]Pyrazin-2(3H)-Yl)Bicyclo[1.1.1]Pentan-1-Yl)-2-Methoxyacetic Acid] | 139 nM
CCOC(=O)C1=C(CN2CCN3C(=O)N(C45CC(C(=O)N6CCOCC6)(C4)C5)C[C@@H]3C2)NC(c2nccs2)=N[C@H]1c1cccc(F)c1C [Compound 27, Ethyl (S)-4-(3-Fluoro-2-Methylphenyl)-6-(((S)-2-(3-(Morpholine-4-Carbonyl)Bicyclo[1.1.1]Pentan-1-Yl)-3-Oxohexahydroimidazo[1,5-a]Pyrazin-7(1H)-Yl)Methyl)-2-(Thiazol-2-Yl)-1,4-Dihydropyrimidine-5-Carboxylate] | 6 nM
CCOC(=O)C1=C(CN2CCN3C(=O)N(C45CC(COC)(C4)C5)C[C@@H]3C2)NC(c2nccs2)=N[C@H]1c1cccc(F)c1C [Compound 3, Ethyl (S)-4-(3-Fluoro-2-Methylphenyl)-6-(((S)-2-(3-(Methoxymethyl)Bicyclo[1.1.1]Pentan-1-Yl)-3-Oxohexahydroimidazo[1,5-a]Pyrazin-7(1H)-Yl)Methyl)-2-(Thiazol-2-Yl)-1,4-Dihydropyrimidine-5-Carboxylate] | 4 nM
CCOC(=O)C1=C(CN2CCN3C(=O)N(C45CC(N6CCCS6(=O)=O)(C4)C5)C[C@@H]3C2)NC(c2nccs2)=N[C@H]1c1cccc(F)c1C [Compound 19, Ethyl (S)-6-(((S)-2-(3-(1,1-Dioxidoisothiazolidin-2-Yl)Bicyclo[1.1.1]Pentan-1-Yl)-3-Oxohexahydroimidazo[1,5-a]Pyrazin-7(1H)-Yl)Methyl)-4-(3-Fluoro-2-Methylphenyl)-2-(Thiazol-2-Yl)-1,4-Dihydropyrimidine-5-Carboxylate] | 3 nM
CCOC(=O)C1=C(CN2CCN3C(=S)N(C45CC(C(=O)O)(C4)C5)C[C@@H]3C2)NC(c2nccs2)=N[C@H]1c1cccc(F)c1C [Compound 32, 3-((S)-7-(((S)-5-(Ethoxycarbonyl)-6-(3-Fluoro-2-Methylphenyl)-2-(Thiazol-2-Yl)-3,6-Dihydropyrimidin-4-Yl)Methyl)-3-Thioxohexahydroimidazo[1,5-a]Pyrazin-2(3H)-Yl)Bicyclo[1.1.1]Pentane-1-Carb Oxylic Acid] | 30 nM
